Data on two compounds can be found in patent US20240285575A1, “NANOPARTICLES WITH ANTI-INFLAMMATORY PROPERTIES AND ENHANCED PENETRATION ACROSS THE BIOLOGICAL BARRIERS TO DELIVER ENCAPSULATED DRUGS” (The Board of Trustees of The University of Alabama, priority 2023, published 2024).

The test system of test [1] is FHs74 cells. The note with it: previous study; cited from earlier work.
For test [2], the system named is FR on FHs74 cells. The test is described as follows: Folate receptor blocking studies in FHs74 cells. It is filed as cell-based, human. As to conditions: blocking of P2Ns-NAR uptake. From the text:
FR Specificity to NAR. The FR-mediated transport of P2Ns-NAR was confirmed by performing blocking studies. Folic acid (FA) strongly binds to FR, with the FA frequently being employed as a targeting ligand on nanoparticles for receptor-mediated drug delivery.^29,30 On the other hand, FA in larger doses is also associated with adverse side effects including toxicity to humans.^16,31,32 The use of NAR as an FR-specific ligand could potentially overcome this limitation and provide a safer alternative for receptor-mediated drug delivery. Selective blockade of FR on FHs74 cells was performed to evaluate the FR-mediated uptake of P2Ns-NAR. Cells were saturated with varying concentrations of blocking agents: antifolate antibody (AB), FA, and MTHFA.

In the case of `Nc1nc2ncc(CNc3ccc(C(=O)N[C@@H](CCC(=O)O)C(=O)O)cc3)nc2c(=O)[nH]1` [FA, Folic acid], in test [1], the “Time to saturate FHs74 cells” value was “less than 1 hour”. Take `CN1c2c(nc(N)[nH]c2=O)NCC1CNc1ccc(C(=O)N[C@@H](CCC(=O)O)C(=O)O)cc1` (some centres unmarked) [MTHFA, methyltetrahydrofolic acid]: the “Concentration of blocking agent needed for blocking levels similar to FA” value in test [2] is reported as “Higher concentrations”.
